Assay results reported in patent US7022736B2, “Enzyme inhibitors” (Istituto Di Ricerche Di Biologia Molecolare P Angeletti SpA, priority 1998, dated 2006).
Read-outs that look alike come from different tables or passages of the source.

Tests used:
[1] = molecular target: T1, HCV RdRp (NS5B RNA-dependent RNA polymerase) (Hepatitis C virus genotype 1b, UniProt P26663); assay: Inhibition of hepatitis C virus RdRp (poly(A)/oligo(U), [3H]UTP incorporation); format: biochemical
T1 construct: The HCV NS5B protein is the viral RdRp; made in house; host or cells: insect cells infected with recombinant baculovirus
Outline: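 Baculovirus-expressed recombinant NS5B (20 nM) polymerised on poly(A) template (10 μg/ml) with oligo(U)12 primer, 10 μM UTP plus [3H]UTP, pH 7.5 Tris buffer with 5 mM MgCl2, 1 h at 22 °C. Acid-insoluble radioactivity counted on filters; IC50 fitted from residual activity with slope term.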

[2] = molecular target: T2, reverse transcriptase of HIV (HIV-1 RT) (Human immunodeficiency virus type 1 group M subtype B, UniProt P03366); assay: Inhibition of HIV-1 reverse transcriptase ([3H]dTTP incorporation); format: biochemical, Human Immunodeficiency Virus-1; details: Tables IXa-IXc; unit inferred; NA=not active as an inhibitor
T2 construct: the reverse transcriptase of HIV (HIV -1RT) from Boehringer Mannhium; purchased Boehringer Mannheim (printed 'Boehringer Mannhium')
Procedure: Test for Inhibition of Human Immunodeficiency Virus-1 Reverse Transcriptase
Analogous assays employed the reverse transcriptase of HIV (HIV -1RT) from Boehringer Mannhium.
Incorporation of radioactive dTTP was measured as follows. The standard reaction (100 μl) was carried out in a buffer containing 50 mM tris/HCl pH 8.2, 2.5 mM MgCl 2, 1 mM DTT, 80 mM KCl, 5 mM EGTA, 0.05% Triton X-100, 1 μCi[3H] dTTP (40 Ci/mmol, NEN), 10 μM […] and 10 μg/ml poly(A)/dT (from Pharmacia).

[3] = molecular target: T3, polymerase of hepatitis B virus (HBV pol) (Hepatitis B virus genotype D subtype ayw, UniProt P03156); assay: Inhibition of hepatitis B virus polymerase (32P-dNTP incorporation, viral particles from patient sera); format: biochemical; details: Tables IXa-IXc; unit inferred; NA=not active as an inhibitor
T3 construct: obtained in the form of viral particles from the sera of HBV positive patients; from tissue; host or cells: sera of HBV positive patients (viral particles)
Procedure: Analogous assays employed the polymerase of hepatitis B virus (HBV pol), obtained in the form of viral particles from the sera of HBV positive patients. These particles contain a polymerase bound to an incomplete double stranded DNA template. In the assay the incorporation of ^32P-dNTP is measured as radioactivity incorporated in acid insoluble precipitate.
The standard reaction (100 μl) was carried out in a buffer containing 50 mM tris/HCl pH 7.5, 30 mM MgCl 2 , 1 mM DTT, 100 mM KCl, 0.02% Triton X-100, 1 μCi[^32P] dCTP (300 Ci/mmol, NEN), 1 μM dATP, dTTP, dGTP. After 1 hour incubation at 37° C. the reaction was stopped by adding 100 μl of 20% TCA and applying samples to DE81 filters. The filters were processed and IC50 values calculated as described above.

[4] = Tables I-VIII, 20 nM NS5B, 1 hour at 22° C., read-out: IC 50 (μM), HCV-polymerase
[5] = Tables IXa-IXc, unit inferred, read-out: HCV (IC50)

T3 sequence (P03156 whole entry): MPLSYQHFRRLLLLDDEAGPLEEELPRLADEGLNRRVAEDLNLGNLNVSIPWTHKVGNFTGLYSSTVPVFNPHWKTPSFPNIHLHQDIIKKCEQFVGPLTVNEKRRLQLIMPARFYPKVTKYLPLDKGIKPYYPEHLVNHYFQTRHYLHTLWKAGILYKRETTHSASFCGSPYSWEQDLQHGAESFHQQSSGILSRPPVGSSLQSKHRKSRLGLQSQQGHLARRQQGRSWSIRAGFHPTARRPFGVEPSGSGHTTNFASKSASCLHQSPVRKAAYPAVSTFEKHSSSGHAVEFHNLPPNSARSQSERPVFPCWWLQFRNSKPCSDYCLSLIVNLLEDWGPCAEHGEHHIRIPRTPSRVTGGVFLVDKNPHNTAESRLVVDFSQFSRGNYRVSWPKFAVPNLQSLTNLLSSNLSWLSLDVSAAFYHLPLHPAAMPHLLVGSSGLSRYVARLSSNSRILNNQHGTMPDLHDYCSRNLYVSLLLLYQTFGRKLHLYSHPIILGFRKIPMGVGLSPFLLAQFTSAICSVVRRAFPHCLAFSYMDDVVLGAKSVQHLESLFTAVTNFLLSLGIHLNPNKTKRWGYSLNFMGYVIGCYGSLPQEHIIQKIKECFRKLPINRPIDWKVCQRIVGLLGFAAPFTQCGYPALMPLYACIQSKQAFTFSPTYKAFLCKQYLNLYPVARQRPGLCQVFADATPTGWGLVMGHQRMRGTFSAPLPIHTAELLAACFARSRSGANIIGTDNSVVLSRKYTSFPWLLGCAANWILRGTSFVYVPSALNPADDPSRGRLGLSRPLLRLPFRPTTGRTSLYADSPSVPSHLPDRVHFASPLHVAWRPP
T1 sequence (P26663 2420-3010): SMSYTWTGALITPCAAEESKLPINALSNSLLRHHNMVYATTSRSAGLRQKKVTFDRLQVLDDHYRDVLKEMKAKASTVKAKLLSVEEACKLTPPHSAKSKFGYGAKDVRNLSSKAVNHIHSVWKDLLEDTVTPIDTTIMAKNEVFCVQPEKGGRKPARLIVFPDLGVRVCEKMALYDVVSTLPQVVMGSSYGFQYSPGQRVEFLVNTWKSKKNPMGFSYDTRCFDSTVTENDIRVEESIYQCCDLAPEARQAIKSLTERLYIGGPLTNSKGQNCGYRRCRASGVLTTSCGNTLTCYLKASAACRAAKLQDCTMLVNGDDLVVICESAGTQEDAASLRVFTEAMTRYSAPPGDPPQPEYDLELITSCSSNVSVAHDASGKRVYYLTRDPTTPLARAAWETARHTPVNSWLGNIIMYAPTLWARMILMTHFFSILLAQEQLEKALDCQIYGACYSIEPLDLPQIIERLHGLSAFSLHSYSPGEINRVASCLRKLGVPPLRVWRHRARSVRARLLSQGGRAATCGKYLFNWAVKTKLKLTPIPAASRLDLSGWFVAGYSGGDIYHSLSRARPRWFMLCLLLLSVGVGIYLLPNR

SMILES	IC50 [1, 4]	IC50 [1, 5]	IC50 [2]	IC50 [3]
N#Cc1cccc(Cl)c1COc1cccc(C(=O)C=C(O)C(=O)O)c1 [Example 107]	0.14 µM	0.14 µM	58 µM	
COc1cc(C)c(C#N)c(COc2cccc(C(=O)C=C(O)C(=O)O)c2)c1 [Example 111]	0.12 µM	0.12 µM	80 µM	
N#Cc1ccccc1OCc1cccc(C(=O)C=C(O)C(=O)O)c1 [Example 112]	1.33 µM	1.33 µM	90 µM	
N#Cc1ccc(Br)cc1COc1cccc(C(=O)C=C(O)C(=O)O)c1 [Example 113]	0.1 µM	0.1 µM	90 µM	
O=C(O)C(O)=CC(=O)c1cccc(NS(=O)(=O)c2cc(Cl)cc(Cl)c2)c1 [Example 117]	0.14 µM	0.14 µM	100 µM	
O=C(O)C(O)=CC(=O)c1cccc(NS(=O)(=O)c2c(Cl)cccc2Cl)c1 [Example 120]	0.36 µM	0.36 µM	80 µM	
N#Cc1c(Cl)cc(Cl)cc1COc1cccc(C(=O)C=C(O)C(=O)O)c1 [Example 126]	0.056 µM	0.056 µM	100 µM	
O=C(O)C(O)=CC(=O)c1cc(O)cc(OCc2ccccc2)c1 [Example 155]	1.4 µM	1.4 µM	130 µM	
Cc1ccc(C(=O)C=C(O)C(=O)O)cc1 [Example 161]	2.8 µM	2.8 µM	320 µM	
O=C(O)C(O)=CC(=O)c1ccc(-c2ccccc2)s1 [Example 196]	15 µM	15 µM	50 µM	9 µM
O=C(O)C(O)=CC(=O)c1ccc(Cc2ccccc2)s1 [Example 202]	68 µM	70 µM	> 100 µM	9 µM
O=C(O)C(O)=CC(=O)c1ccc(Cc2cccc(F)c2)s1 [Example 205]	74 µM	74 µM		3.3 µM
O=C(O)C(O)=CC(=O)c1ccc(Cc2ccc(F)cc2)s1 [Example 206]	65 µM	65 µM		2 µM
O=C(O)C(O)=CC(=O)c1ccc(-c2ccc(F)c(Cl)c2)o1 [Example 218]	41.2 µM	41.2 µM	11.8 µM	
Cc1sc(-c2ccccc2)cc1C(=O)C=C(O)C(=O)O [Example 225]	167 µM	167 µM	86 µM	4 µM
O=C(O)C(O)=CC(=O)C12CC3CC(CC(C3)C1)C2 [Example 243]	6.7 µM	6.7 µM	26.8 µM	
O=C(O)C(O)=CC(=O)c1ccc(-c2cc(Cl)cc(Cl)c2)o1 [Example 258]		> 100 µM	3.6 µM	
